Results on three molecules are retold here after ChEMBL document CHEMBL1126941, “Synthesis and evaluation of unsymmetrically substituted polyamine analogues as modulators of human spermidine/spermine-N1-acetyltransferase (SSAT) and as potential antitumor agents” (1993).

What all share (type): functional, Homo sapiens
The test system of assay [1] is LCLC. As to the kind of experiment: Tested for induction of SSAT activity in H157 LCLC cells following treatment with 10 uM of the BESpm.
Assay [2] relates to SCLC. As to the kind of experiment: Tested for induction of SSAT activity in H82 SCLC cells following treatment with 10 uM BESpm.
The test system of assay [3] is SCLC. As to the kind of experiment: Tested for induction of SSAT activity in H82 SCLC cells following treatment with 10 uM of the BESpm.

For `Br.Br.Br.Br.CCNCCCNCCCCNCCCNCC`, the SSAT was determined as 38300 pmol/min/mg in assay [1] and 22.7 pmol/min/mg in assay [2].

On to `Br.Br.Br.Br.C#CCNCCCNCCCNCCCNCC`, for which the SSAT stood at 19100 pmol/min/mg in assay [1] and 19.8 pmol/min/mg in assay [3].

With `Br.Br.Br.Br.CCNCCCNCCCNCCCNCC1CC1`, the SSAT came out at 42800 pmol/min/mg in assay [1] and 47.1 pmol/min/mg in assay [3].
